Experimental data as given in BindingDB's records for doi:10.1016/j.bmc.2016.03.038 (2016).

Legend:
[1] = Inhibition of mouse GAT2 expressed in HEK293 cells assessed as [3H]GABA uptake preincubated for 25 mins followed by [3H]GABA/unlabeled GABA addition measured after 10 mins by liquid scintillation counting analysis
[2] = Inhibition of mouse GAT3 expressed in HEK293 cells assessed as [3H]GABA uptake preincubated for 25 mins followed by [3H]GABA/unlabeled GABA addition measured after 4 mins by liquid scintillation counting analysis

SMILES	IC50 [1]	IC50 [2]
O=C(O)[C@H]1CNCC[C@H]1CCCC/C=C/c1ccccc1-c1ccccc1	52.2 µM	–
O=C(O)[C@H]1CNCC[C@H]1CC/C=C/c1ccccc1Cc1ccccc1	–	62.5 µM
O=C(O)[C@H]1CNCC[C@H]1CCCC#Cc1ccccc1Cc1ccccc1	–	37.6 µM
O=C(O)[C@H]1CNCC[C@@H]1CCCC/C=C/c1ccccc1-c1ccccc1	–	44.5 µM
